Results reported in ChEMBL document CHEMBL1201862, “PubChem BioAssay data set” (2004).
Calls of active or inactive are those of the source.

Experiments:
[1] = biological target: T1, Dual specificity protein phosphatase 3 (Homo sapiens, UniProt P51452); assay: SAR VHR1 absorbance Assay for In Vitro dose response studies. [Related pubchem assays (depositor defined):AID1654, AID1661, AID1878, AID1992, AID2004]
[2] = biological target: T1, Dual specificity protein phosphatase 3; assay: SAR VHR1 Fluorescent Assay for In Vitro dose response studies. [Related pubchem assays (depositor defined):AID1654, AID1661, AID1878, AID1992, AID2004, AID2070, AID2085]; type: functional
[3] = biological target: T1, Dual specificity protein phosphatase 3; assay: MOA VHR1 Fluorescent secondary assay for identification of redox-state modulating compounds. [Related pubchem assays (depositor defined):AID1654, AID1661, AID1878, AID1957]
[4] = biological target: T2, Tyrosine-protein phosphatase non-receptor type 7 (Homo sapiens, UniProt P35236); assay: redox-dependent HePTP inhibition, mechanism study, biochemical, fluorescence (AID 2068); type: functional
T2 sequence (P35236 whole entry): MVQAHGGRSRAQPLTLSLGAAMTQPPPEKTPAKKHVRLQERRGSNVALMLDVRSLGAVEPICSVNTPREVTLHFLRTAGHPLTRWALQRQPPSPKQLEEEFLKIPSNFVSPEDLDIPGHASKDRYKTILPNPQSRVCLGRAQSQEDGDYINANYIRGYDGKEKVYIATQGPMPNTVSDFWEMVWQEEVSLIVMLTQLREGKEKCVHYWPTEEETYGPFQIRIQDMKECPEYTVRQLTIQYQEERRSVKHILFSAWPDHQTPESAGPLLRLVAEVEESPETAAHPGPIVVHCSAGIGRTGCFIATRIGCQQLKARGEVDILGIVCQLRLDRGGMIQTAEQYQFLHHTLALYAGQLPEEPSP

[5] = biological target: Dual specificity protein phosphatase 6 (Rattus norvegicus, UniProt Q64346); type: functional;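 further: confirmatory in vitro dose-response testing of MKP-3 inhibition; recombinant His-tagged MKP-3 made in E. coli BL21 with OMFP substrate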
[6] = biological target: T3, Polyadenylate-binding protein 1 (Homo sapiens, UniProt P11940); assay: PABP1 MLLE–PAM2 interaction inhibitors, dose response, miRNA deadenylation inhibitor project, biochemical, fluorescence polarization, Cy5-PAM2 peptide, secondary (AID 602260); type: functional; conditions: read-out: IC50_Mean
[7] = biological target: T3, Polyadenylate-binding protein 1; assay: PABP1 MLLE–PAM2 binding inhibitor potency, dose response, biochemical, fluorescence polarization, FITC-PAM2 peptide (AID 602259); type: functional; conditions: read-out: IC50_Mean
ORF 73 = ORF 73 (Human herpesvirus 8, UniProt O40947); assay: inhibitors of C-LANA binding to LBS DNA, dose response, biochemical, fluorescence polarization, cherry-picked samples (AID 504725); parameters: species or system Human gammaherpesvirus 8;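 further: fluorescence polarization of a labeled DNA duplex reporting LANA DNA binding; potency is for inhibitors that block LANA binding to the DNA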
CHO = assay: cytotoxicity in TLR9-MyD88 CHO cells, dose response, cytotoxicity control for TLR9-MyD88 binding inhibitor project, cell-based, luminescence (AID 588339); type: functional, hamster; conditions: Cricetulus griseus;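 further: CHO cells stably coexpressing TLR9 and MyD88 fusions from primary screen; compound exposure lasted 48 hours before viability readout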
[8] = biological target: UDP-galactopyranose mutase (Mycobacterium tuberculosis, UniProt P9WIQ1); assay: Inhibitors of Mycobacterium tuberculosis UDP-galactopyranose mutase (UGM) enzyme Measured in Biochemical System Using Plate Reader - 2105-02_Inhibitor_Dose_CherryPick_Activity. [Related pubchem assays (depositor defined):AID504439]
Insulin-degrading enzyme [9] = biological target: T4, Insulin-degrading enzyme (Homo sapiens, UniProt P14735); assay: activators of recombinant IDE enzyme, dose response, counter-screen for IDE activator project, biochemical, fluorescence polarization (AID 588681)
T4 sequence (P14735 whole entry): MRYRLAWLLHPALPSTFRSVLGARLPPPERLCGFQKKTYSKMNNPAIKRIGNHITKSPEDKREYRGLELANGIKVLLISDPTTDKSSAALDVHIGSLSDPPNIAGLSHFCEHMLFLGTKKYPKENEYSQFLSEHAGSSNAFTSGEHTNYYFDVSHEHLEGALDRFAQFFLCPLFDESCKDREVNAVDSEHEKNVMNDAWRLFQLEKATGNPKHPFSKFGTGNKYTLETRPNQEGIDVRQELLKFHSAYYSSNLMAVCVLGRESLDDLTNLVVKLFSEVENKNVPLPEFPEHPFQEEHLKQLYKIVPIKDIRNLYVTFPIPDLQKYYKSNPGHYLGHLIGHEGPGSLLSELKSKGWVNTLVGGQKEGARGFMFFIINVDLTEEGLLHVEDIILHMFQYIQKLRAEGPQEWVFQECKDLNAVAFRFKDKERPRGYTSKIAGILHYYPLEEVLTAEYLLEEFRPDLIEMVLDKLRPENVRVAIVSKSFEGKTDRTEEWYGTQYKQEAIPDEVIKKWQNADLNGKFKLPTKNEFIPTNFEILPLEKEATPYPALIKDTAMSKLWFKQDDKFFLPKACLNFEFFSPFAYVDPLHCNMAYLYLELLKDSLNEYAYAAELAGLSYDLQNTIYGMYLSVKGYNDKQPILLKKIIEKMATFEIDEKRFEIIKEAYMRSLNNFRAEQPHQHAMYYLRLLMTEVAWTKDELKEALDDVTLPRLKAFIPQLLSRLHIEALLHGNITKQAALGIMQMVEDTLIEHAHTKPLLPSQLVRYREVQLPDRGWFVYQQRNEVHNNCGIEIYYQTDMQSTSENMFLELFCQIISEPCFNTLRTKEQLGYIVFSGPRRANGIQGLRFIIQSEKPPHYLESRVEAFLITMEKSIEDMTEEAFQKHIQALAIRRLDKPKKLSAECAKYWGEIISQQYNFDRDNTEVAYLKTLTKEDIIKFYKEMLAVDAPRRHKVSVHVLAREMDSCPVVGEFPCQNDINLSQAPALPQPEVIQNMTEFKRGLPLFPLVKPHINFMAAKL

Keap1/Nrf2 = Keap1/Nrf2 (Homo sapiens, UniProt Q14145); assay: Keap1-Nrf2 protein-protein interaction inhibitors, dose response, biochemical, fluorescence polarization, cherry-picked samples (AID 588683)
Beta Lactamase = Beta Lactamase (Pseudomonas aeruginosa, UniProt Q932Y6); assay: beta-lactamase reporter inhibitor potency, dose response, artefact control for TLR9-MyD88 binding inhibitor project, BLA reporter cells, FRET fluorescence (AID 588341); type: cell-based;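 further: cell based assay in CHO-K1 cells stably expressing beta-lactamase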
Insulin-degrading enzyme [10] = biological target: T4, Insulin-degrading enzyme; assay: activators of endogenous IDE in HEK cells, dose response, cell-based, fluorescence polarization (AID 588439); type: functional
HEK293 [11] = assay: HEK cell cytotoxicity by LDH release, dose response, cytotoxicity control for IDE activator project, fluorescence, HEK cells (AID 588440); type: functional, cell-based; conditions: Homo sapiens;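 further: cytotoxicity by LDH release measuring loss of membrane integrity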
HEK293 [12] = assay: optical interference in Abeta FP readout, dose response, artefact control for IDE activator project, biochemical, fluorescence polarization (AID 588442); type: functional, cell-based; conditions: Homo sapiens
[13] = HEp-2 cell cytotoxicity, dose response, cytotoxicity control for RSV inhibitor project, HTS (AID 2410); type: functional; conditions: human respiratory syncytial virus
Large T antigen = Large T antigen (Simian virus 40, UniProt P03070); type: functional, Betapolyomavirus macacae;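 further: Confirmatory-stage PubChem screen for compounds that inhibit SV40 T antigen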
[14] = biological target: Intestinal-type alkaline phosphatase (Mus musculus, UniProt P24822); assay: PubChem AID 488874; type: functional
[15] = biological target: T5, Intestinal-type alkaline phosphatase (Homo sapiens, UniProt P09923); assay: human IAP inhibitors, dose response, biochemical, luminescent, uHTS hits, set 2 (AID 488793); type: functional
[16] = biological target: T5, Intestinal-type alkaline phosphatase; assay: Dose Response confirmation of uHTS hits from a small molecule inhibitors of human intestinal alkaline phosphatase via a luminescent assay. [Related pubchem assays (depositor defined):AID2544, AID2574]; type: functional
[17] = biological target: FAD-linked sulfhydryl oxidase ALR (Homo sapiens, UniProt P55789); assay: inhibitors of human ALR sulfhydryl oxidase, dose response, biochemical, H2O2 detection, luminescence, cherry-pick (AID 493248)
[18] = biological target: T6, Alkaline phosphatase, tissue-nonspecific isozyme (Homo sapiens, UniProt P05186); assay: inhibition of tissue-nonspecific alkaline phosphatase – biochemical, dose response (AID 488882); type: functional
T6 sequence (P05186 whole entry): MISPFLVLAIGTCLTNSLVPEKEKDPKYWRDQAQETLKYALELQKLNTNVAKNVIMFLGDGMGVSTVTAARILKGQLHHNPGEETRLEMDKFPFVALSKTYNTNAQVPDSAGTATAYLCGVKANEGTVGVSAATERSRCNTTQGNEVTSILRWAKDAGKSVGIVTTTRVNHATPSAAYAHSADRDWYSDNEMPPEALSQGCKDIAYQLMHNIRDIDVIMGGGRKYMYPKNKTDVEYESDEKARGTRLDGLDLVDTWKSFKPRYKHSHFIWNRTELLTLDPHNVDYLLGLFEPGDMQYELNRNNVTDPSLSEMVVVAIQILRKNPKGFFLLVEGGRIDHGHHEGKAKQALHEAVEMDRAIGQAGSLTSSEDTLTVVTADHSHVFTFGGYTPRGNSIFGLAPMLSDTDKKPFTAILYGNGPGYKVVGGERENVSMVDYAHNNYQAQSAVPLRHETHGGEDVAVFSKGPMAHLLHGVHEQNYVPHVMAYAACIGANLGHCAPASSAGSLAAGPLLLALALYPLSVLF

Vero = Vero cell cytotoxicity, cytotoxicity control for flavivirus capping enzyme inhibitors (AID 588742); type: functional; conditions: Chlorocebus sabaeus
Albumin = Albumin (Bos taurus, UniProt P02769); assay: Counterscreen for inhibitors of T-cell receptor (TCR)-CD3 interaction: Fluorescence-based biochemical high throughput dose response assay to identify inhibitors of T-cell receptor (TCR)-CD3 interaction using a TAMRA-labeled BSA probe.; type: functional
Caspase-6 = biological target: T7, Caspase-6 (Homo sapiens, UniProt P55212); assay: human caspase-6 inhibitors, dose response, biochemical, VEID-R110 fluorescence, cherry-pick (AID 720632)
T7 sequence (P55212 whole entry): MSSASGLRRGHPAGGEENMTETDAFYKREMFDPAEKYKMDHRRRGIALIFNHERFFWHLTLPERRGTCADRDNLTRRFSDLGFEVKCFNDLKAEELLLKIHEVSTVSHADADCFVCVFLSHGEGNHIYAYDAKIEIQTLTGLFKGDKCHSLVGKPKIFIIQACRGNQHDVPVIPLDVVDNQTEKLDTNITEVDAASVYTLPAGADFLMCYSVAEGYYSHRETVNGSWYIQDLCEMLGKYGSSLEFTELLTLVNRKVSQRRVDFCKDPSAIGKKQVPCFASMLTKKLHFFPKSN

[19] = biological target: T8, Histone-lysine N-methyltransferase NSD2 (Homo sapiens, UniProt O96028); type: biochemical
T8 sequence (O96028 whole entry): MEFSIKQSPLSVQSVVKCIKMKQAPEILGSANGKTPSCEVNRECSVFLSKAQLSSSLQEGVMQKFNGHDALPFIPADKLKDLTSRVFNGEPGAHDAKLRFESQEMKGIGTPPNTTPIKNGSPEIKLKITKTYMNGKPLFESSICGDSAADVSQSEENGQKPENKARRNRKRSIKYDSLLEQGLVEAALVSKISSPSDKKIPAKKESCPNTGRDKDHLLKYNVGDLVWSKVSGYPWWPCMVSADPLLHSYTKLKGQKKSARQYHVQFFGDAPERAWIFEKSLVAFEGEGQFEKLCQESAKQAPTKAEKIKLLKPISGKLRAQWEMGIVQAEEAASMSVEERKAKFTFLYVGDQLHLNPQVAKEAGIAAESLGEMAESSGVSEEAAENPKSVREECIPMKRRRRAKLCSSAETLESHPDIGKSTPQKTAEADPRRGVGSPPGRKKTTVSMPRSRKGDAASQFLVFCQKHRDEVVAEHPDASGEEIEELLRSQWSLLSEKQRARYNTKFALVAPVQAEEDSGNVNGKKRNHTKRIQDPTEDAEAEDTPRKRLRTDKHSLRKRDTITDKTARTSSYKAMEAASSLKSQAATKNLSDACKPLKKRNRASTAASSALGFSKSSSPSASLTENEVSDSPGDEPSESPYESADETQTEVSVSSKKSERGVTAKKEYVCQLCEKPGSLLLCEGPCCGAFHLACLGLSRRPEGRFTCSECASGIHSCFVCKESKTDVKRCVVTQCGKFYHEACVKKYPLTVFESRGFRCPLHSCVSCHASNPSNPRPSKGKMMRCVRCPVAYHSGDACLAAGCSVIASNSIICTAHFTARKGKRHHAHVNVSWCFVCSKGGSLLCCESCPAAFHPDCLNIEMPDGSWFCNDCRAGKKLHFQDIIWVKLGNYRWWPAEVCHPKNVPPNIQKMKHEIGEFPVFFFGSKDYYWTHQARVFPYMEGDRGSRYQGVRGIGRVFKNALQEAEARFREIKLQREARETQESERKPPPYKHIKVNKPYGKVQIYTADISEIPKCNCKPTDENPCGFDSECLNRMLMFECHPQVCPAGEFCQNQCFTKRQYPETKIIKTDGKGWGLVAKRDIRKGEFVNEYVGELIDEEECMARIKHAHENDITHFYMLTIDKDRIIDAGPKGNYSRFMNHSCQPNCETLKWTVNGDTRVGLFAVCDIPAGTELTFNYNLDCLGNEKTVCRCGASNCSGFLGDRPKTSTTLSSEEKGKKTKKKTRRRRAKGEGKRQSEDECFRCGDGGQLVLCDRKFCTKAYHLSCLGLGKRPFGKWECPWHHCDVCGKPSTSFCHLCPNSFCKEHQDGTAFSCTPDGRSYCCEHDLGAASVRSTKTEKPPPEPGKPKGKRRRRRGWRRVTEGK

T1 sequence (P51452 whole entry): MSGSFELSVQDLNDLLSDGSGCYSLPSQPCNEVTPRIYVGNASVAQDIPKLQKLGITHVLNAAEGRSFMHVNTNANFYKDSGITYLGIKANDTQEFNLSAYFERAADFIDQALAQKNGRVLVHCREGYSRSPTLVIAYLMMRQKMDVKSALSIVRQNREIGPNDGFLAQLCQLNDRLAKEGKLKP
T5 sequence (P09923 whole entry): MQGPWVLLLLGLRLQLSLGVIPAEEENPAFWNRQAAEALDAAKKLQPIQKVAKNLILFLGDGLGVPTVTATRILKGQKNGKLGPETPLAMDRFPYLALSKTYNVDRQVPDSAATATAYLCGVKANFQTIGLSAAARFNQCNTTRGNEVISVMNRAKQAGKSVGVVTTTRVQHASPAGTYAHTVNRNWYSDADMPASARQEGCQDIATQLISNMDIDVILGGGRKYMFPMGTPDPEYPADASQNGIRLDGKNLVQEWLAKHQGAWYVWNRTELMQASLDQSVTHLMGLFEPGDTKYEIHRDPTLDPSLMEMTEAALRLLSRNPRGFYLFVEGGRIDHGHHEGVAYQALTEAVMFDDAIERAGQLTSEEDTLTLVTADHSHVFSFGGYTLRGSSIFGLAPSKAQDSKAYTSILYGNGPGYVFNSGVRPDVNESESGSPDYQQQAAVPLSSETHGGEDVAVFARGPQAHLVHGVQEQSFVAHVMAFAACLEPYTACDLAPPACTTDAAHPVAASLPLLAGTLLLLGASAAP
T3 sequence (P11940 whole entry): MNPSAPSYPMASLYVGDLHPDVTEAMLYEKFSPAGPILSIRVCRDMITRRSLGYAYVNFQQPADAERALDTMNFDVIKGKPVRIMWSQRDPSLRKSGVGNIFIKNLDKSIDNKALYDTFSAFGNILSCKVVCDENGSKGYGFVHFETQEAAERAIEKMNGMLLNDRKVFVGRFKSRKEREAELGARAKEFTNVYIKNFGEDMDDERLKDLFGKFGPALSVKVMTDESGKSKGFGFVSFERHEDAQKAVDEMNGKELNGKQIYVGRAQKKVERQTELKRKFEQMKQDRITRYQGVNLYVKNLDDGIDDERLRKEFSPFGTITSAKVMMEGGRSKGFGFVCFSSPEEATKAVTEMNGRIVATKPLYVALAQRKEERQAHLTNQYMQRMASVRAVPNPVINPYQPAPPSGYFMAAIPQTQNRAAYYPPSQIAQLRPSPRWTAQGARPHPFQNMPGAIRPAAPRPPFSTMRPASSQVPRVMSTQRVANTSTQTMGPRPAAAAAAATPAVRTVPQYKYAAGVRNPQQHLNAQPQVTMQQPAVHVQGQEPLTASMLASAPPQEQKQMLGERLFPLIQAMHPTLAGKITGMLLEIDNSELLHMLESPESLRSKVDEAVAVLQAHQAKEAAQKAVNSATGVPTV
ORF 73, sequence (O40947 whole entry, the tested form may be a part): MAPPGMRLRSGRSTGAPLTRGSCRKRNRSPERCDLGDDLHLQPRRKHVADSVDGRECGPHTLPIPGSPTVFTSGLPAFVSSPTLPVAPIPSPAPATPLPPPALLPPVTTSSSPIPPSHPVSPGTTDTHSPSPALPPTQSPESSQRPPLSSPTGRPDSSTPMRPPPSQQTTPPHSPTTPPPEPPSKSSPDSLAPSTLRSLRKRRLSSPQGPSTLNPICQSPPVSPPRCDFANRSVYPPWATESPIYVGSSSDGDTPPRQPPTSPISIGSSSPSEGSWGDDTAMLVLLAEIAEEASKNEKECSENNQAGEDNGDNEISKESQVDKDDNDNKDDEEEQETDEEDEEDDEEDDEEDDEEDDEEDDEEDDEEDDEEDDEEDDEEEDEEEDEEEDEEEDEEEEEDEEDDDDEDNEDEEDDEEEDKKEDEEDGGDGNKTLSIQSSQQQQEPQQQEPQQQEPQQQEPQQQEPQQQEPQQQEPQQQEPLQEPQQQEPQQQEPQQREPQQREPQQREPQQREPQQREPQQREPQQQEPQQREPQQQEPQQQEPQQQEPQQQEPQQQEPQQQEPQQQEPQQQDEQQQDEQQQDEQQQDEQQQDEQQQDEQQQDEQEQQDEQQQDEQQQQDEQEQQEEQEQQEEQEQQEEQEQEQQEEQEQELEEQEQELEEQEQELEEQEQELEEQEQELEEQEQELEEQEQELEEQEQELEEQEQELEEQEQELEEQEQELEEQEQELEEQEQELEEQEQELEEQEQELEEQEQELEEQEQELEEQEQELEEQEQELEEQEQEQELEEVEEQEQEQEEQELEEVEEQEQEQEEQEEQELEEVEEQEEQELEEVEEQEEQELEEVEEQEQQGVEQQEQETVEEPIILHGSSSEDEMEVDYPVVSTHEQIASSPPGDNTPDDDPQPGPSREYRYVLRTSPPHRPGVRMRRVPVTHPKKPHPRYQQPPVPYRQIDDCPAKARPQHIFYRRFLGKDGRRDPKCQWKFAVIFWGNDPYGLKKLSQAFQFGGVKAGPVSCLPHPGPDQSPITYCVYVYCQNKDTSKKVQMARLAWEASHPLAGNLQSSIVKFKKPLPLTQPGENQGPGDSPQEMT
FAD-linked sulfhydryl oxidase ALR, sequence (P55789 whole entry): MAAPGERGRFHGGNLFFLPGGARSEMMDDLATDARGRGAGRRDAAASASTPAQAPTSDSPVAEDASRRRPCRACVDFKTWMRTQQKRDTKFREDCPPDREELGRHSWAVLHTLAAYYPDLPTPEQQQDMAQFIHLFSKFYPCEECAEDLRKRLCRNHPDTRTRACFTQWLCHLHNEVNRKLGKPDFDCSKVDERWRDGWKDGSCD
Albumin, sequence (P02769 whole entry): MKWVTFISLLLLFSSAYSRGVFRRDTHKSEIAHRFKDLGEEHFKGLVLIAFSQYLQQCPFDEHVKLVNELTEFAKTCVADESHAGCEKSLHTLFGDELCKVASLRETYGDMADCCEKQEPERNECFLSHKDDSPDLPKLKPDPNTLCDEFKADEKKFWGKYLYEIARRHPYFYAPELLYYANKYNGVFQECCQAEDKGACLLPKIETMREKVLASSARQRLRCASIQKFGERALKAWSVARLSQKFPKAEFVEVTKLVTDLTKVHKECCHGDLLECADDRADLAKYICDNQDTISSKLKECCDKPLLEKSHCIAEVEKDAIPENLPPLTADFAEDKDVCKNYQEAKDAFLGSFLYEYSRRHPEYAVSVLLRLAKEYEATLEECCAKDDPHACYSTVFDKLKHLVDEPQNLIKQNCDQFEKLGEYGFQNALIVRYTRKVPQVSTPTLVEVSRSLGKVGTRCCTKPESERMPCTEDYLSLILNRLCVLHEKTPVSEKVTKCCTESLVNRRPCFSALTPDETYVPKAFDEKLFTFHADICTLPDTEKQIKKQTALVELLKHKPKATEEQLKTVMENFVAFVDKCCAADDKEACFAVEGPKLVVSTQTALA
Large T antigen, sequence (P03070 whole entry): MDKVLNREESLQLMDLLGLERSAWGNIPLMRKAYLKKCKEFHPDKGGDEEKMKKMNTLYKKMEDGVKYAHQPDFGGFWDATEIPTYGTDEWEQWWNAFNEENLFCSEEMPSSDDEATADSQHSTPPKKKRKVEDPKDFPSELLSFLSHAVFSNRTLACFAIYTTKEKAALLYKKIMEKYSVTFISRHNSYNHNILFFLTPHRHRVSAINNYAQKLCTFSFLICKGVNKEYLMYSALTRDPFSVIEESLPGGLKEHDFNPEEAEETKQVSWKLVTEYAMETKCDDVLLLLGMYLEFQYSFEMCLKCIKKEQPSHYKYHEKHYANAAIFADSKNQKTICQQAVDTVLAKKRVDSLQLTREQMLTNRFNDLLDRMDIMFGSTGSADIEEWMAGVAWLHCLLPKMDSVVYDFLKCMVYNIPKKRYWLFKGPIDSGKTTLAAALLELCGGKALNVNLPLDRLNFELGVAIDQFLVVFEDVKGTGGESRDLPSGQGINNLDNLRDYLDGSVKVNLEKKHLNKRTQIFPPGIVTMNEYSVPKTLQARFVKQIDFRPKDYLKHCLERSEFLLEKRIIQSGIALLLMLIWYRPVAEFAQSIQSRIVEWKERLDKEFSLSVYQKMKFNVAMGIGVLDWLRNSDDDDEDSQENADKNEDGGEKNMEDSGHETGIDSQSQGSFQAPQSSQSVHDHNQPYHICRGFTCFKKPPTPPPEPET
UDP-galactopyranose mutase, sequence (P9WIQ1 whole entry): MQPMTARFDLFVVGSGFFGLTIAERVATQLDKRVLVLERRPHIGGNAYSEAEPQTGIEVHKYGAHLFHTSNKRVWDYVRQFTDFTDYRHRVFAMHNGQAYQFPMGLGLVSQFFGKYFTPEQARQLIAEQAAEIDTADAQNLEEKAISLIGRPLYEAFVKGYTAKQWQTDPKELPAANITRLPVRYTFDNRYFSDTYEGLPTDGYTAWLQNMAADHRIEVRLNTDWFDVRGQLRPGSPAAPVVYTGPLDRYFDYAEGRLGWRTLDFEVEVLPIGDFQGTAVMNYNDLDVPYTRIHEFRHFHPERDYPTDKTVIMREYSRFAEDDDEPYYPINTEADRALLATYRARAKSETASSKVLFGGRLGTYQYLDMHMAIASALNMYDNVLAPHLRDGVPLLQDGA
Dual specificity protein phosphatase 6, sequence (Q64346 whole entry): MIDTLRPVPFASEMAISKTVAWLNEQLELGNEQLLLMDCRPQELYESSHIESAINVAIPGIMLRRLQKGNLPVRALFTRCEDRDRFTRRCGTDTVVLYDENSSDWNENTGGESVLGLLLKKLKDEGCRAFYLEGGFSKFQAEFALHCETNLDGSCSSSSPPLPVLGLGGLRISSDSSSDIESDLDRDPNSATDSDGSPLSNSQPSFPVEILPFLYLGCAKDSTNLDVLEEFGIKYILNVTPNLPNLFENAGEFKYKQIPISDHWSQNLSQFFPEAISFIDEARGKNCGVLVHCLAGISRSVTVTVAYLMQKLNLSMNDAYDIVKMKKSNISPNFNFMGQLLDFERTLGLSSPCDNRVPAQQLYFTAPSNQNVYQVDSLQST

## COc1cc(C(=S)N2CCC(C)CC2)ccc1O
[1]
  IC50: > 100 µM (inactive)
[2]
  IC50: 30.4 µM (active)
[3]
  IC50: 1.21 µM (active)
[4]
  IC50: 1.61 µM (active)
[5]
  IC50: > 100 µM (inactive)
[6]
  IC50: > 66 µM (inactive)
[7]
  IC50: > 66 µM (inactive)

## CC(C)CCN1C(=O)c2cccc3c(N)ccc(c23)C1=O
ORF 73
  AC50: 5.98 µM (active)
CHO
  IC50: > 49.8 µM (inactive)
[8]
  AC50: 2.84 µM (active)
Insulin-degrading enzyme [9]
  EC50: > 54.7 µM (inactive)
Keap1/Nrf2
  AC50: 1.71 µM (active)
Beta Lactamase
  IC50: 4.77 µM (active)
Insulin-degrading enzyme [10]
  EC50: > 54.7 µM (inactive)
HEK293 [11]
  IC50: > 89.3 µM (inactive)
HEK293 [12]
  EC50: 13.2 µM (inactive)

## O=C1Nc2ccccc2/C1=N/N=C/c1ccc(O)c(O)c1
[13]
  CC50: 22.4 µM (active)
Large T antigen
  IC50: 3.29 µM (active)
[14]
  IC50: 4.79 µM (active)
[15]
  IC50: 7.63 µM (active)
[16]
  IC50: 7.95 µM (active)
[17]
  AC50: 0.83 µM (active)
[18]
  IC50: 3.29 µM (active)
Vero
  CC50: > 40 µM (active)
Albumin
  IC50: > 94.1 µM (inactive)
Caspase-6
  AC50: 0.226 µM (active)
[19]
  AC50: 0.407 µM (active)
